The values below come from patent US9827224B2, “Methods and compositions for ameliorating pancreatic cancer” (University of South Alabama, priority 2010, dated 2017).

One series has as its system ERK. As to the kind of experiment: Western blot of ERK activation (total and phospho-forms) in Panc1 and MiaPaCa cells. Type of series: cell-based, Human. The following applies: for effect on CXCL12-induced activation of ERK pathway: pre-treatment 1 h (AMD3100, LY294002 20 μM, PD98059 25 μM), 15 min post-CXCL12, Panc1 and MiaPaCa. As to the method:
(§1) Cells were processed for protein extraction and western blotting using standard procedures. Briefly, cells were washed twice with PBS and scraped into NP-40 lysis buffer containing protease and phosphotase inhibitors. Cell lysates were passed through a needle syringe to facilitate the disruption of the cell membranes and were centrifuged at 14,000 rpm for 20 min at 4° C., and supematants were collected. Proteins (10-50 μg) were resolved by electrophoresis on 10% SDS-PAGE, transferred onto polyvinylidene difluoride (PVDF) membrane and subjected to standard immunodetection procedure using specific antibodies: AKT, pAKT ERK1/2, pERK1/2, Bcl-2, Bcl-xL, FAk, pFAk, Survivin, β-catenin and BAD (1:1000), pBAD (1:500), Notch-1 (1:200) and β-actin (1:20000). All secondary antibodies were used at 1:2500 dilutions. Blots were processed with ECL Plus Western Blotting detection kit and the signal detected using an LAS-3000 image analyzer (Fuji Photo Film Co., Tokyo, Japan).
Background: In western blotting, separated proteins are transferred to a membrane and probed.

Series [1] concerns Panc1 and MiaPaCa cells. Put plainly: Cell viability assay (Vybrant MTT cell proliferation assay), results stated for both cell lines together. Type of series: cell-based, Human. The following applies: for effect on CXCL12-induced chemo-resistance (gemcitabine): pre-treatment 1 h (AMD3100 5 μg/mL, LY294002 20 μM, PD98059 25 μM), then gemcitabine + CXCL12. The procedure:
(§2) After 72 h of treatment, cell growth was determined by using Vybrant MIT cell proliferation assay. Growth was calculated as percent (%)=[{(A/B)−1}×100], where A and B are the absorbance of treatment and control cells, respectively. To examine the effect of CXCR4 targeting, cells were pre-incubated with small molecule CXCR4 antagonist, AMD3100 (5 μg/mL), for 1 h. To delineate the role of Akt and ERK pathways, cells were pretreated for 1 h with LY294002 (20 μM) and PD98059 (25 μM), respectively.
A general note: Formazan colour is commonly taken as a measure of viable cells.

For series [2] the following is noted: human volunteers, intra-venous injection; cited from earlier work.
The subject of a further series is Akt. As to the kind of experiment: Western blot of Akt activation (total and phospho-forms) in Panc1 and MiaPaCa cells. Type of series: cell-based, Human. The procedure:
as §1

Series [3] has as its system Panc1 and MiaPaCa cells. As to the kind of experiment: DNA fragmentation assay. The conditions noted are these: gemcitabine 5 and 10 μM + CXCL12 100 ng/mL, 48 h, compared to gemcitabine alone. Type of series: cell-based, Human. As to the method: Cells were washed twice with phosphate buffer saline (PBS) and DNA was extracted using DNAzol reagent. 2 μg of isolated DNA was resolved on 1.0% agarose gel containing ethidium-bromide (EtBr) and observed under a LAS-3000 image analyzer (Fuji Photo Film Co.).

A further series concerns FAK. As to the kind of experiment: Western blot of FAK activation in Panc1 and MiaPaCa cells. Type of series: cell-based, Human. The conditions noted are these: CXCL12 100 ng/mL, 5-30 min. The procedure: as §1
In a further series the test system is activated caspases. As to the kind of experiment: Measurement of apoptosis in situ (CaspACE FITC-VAD-FMK). Type of series: cell-based, Human. The following applies: gemcitabine 5 μM + CXCL12 100 ng/mL, compared to gemcitabine alone. The procedure:
Apoptosis was detected by staining the cells with CaspACE FITC-VAD-FMK solution in PBS for 2 h at 37° C. CaspACE™ FITC-VAD-FMK In Situ Marker is a fluorescent analog of the pan-caspase inhibitor Z-VAD-FMK (carbobenzoxy-valyl-alanylaspartyl-[O-methyl]-fluoromethylketone), which irreversibly binds to activated caspases and is a surrogate for caspase activity in situ. Following staining with CaspACE FITC-V AD-FMK, cells were fixed with 4% paraformaldehydede at room temperature and washed with PBS. The bound fluorescent marker was detected under a Nikon Eclipse TE2000-U fluorescent microscope (Nikon Instruments Inc, Melville, N.Y.).

The next series relates to BAD. Put plainly: Western blot of BAD phosphorylation in Panc1 and MiaPaCa cells. The following applies: CXCL12-treated Panc1 and MiaPaCa. Type of series: cell-based, Human. As to the method: as §1
In a further series the test system is SHH. Put plainly: CXCL12-induced sonic hedgehog (SHH) expression by Q-RT-PCR and Western blot. Type of series: cell-based, Human. The following applies: CXCL12, 0-48 hours, Panc1 and MiaPaCa. The procedure: Panc1 and MiaPaCa cells were treated with CXCL12 and expression of SHH was measured by Q-RT-PCR and Western blot analysis.
Q-RT-PCR: Pancreatic cancer cells (Panc1 and MiaPaCa) were treated with CXCL12 for different time point (0, 4, 8, 24, 48 hours) for Q-RT-PCR analysis. To confirm the induced expression of sonic hegedehog (SHH), reverse transcriptase based-PCR (RT-PCR) analysis was performed, using SHH-specific primers. Briefly, cDNA was synthesized from 5 μg total RNA using SuperScript™ II Reverse Transcriptase (Invitrogen) and oligo(dT) primer. Two micro liter of first strand cDNA (1:10 dilution) was amplified using the SHH specific and GAPDH specific primers control. Amplified products were resolved through a 1.5% agarose gel containing ethidium bromide and analyzed using an Alpha Imager gel documentation system (Alphalnnotech, San Leandro, Calif.).
Immunoblot analyses: NP-40 lysis buffer containing protease and phosphatase inhibitors (Roche Diagnostics. 50 μg protein was resolved by SDS-PAGE (8-12%). The primary antibodies were: anti-sonic hedgehog (SHH, 1:2000, rabbit monoclonal, Millipore. Secondary antibody (Santa Cruz Biotechnology) was horseradish peroxidase (HRP)-conjugated and was used a 1:2000 dilution. Bound immunocomplexes were detected using ECL Plus chemiluminescent detection reagent (GE Healthcare, Piscataway, N.J.).

The test system of series [4] is Bcl-2, Bcl-xL, Notch-1 and survivin. Put plainly: Western blot of survival protein expression in pancreatic cancer cells. The format is cell-based, Human. The conditions noted are these: CXCL12-treated pancreatic cancer cells. As to the method: as §1
The subject of the next series is NF-κB. Put plainly: NF-κB transcriptional activity assay (luciferase reporter). The format is cell-based, Human. The following applies: 24 h. The procedure: To measure the LEF/TCF and NF-κB transcriptional activity, pancreatic cancer cells (1×10^5) were seeded in 12-well plates. After 24 h incubation, cells were transiently transfected with the luciferase promoter-reporter constructs (TOP flash, FOPflash or pGL4.32[luc2P/NF-kB-RE/Hygro]. TOPflash reporter plasmid contains three copies of the Tcf/Lef sites upstream of a thymidine kinase (TK) promoter and the Firefly luciferase gene, while in FOPflash, Tcf/Lef sites are mutated and therefore it serves as a control for measuring nonspecific activation of the reporter. Cells were also co-transfected with a reporter plasmid, containing Renilla reniformis luciferase gene downstream of the TK promoter, to control for the transfection efficiency. All transfections were performed using FuGene as a transfection reagent according to the manufacturers' recommendations. Cells were treated with CXCL12 (100 ng) 24 h post TOPflash/FOPflash or pGLA.32[luc2P/NF-kB-RE/Hygro] transfection, and after the next 24 h, total protein was isolated in passive lysis buffer. Luciferase activity was measured using the Dual Luciferase Assay System. All experiments were done in triplicate and relative luciferase activity reported as the fold induction after normalization for transfection efficiency.
For orientation: In a reporter assay the amount or activity of a reporter protein is the signal.

Another series relates to Panc1 cells. As to the kind of experiment: Cell viability assay (MTT), gemcitabine cytotoxicity. The conditions noted are these: 5.0 μM gemcitabine, 72 h, serum-containing media, compared to untreated cells. The format is cell-based, Human. The procedure: as §2
In a further series the test system is MiaPaCa cells. Described as above. The format is cell-based, Human. The conditions noted are these: 5.0 μM gemcitabine, 72 h, serum-containing media, compared to untreated cells. As to the method: as §2
[5] abbreviates: CXCL12 100 ng/mL, 5-30 min, Panc1 and MiaPaCa.

For `c1cc(CN2CCCNCCNCCCNCC2)ccc1CN1CCCNCCNCCCNCC1` [AMD3100, Plerixafor, reference compound], the “effect on CXCL12-induced activation of ERK pathway” value with ERK was “inhibited”. In the series with Panc1 and MiaPaCa cells [1], the “effect on CXCL12-induced chemo-resistance (gemcitabine)” value is on record as “abolished”. Moreover, the “effect on CXCL12-induced growth promotion” value in the series with Panc1 and MiaPaCa cells [1] (pre-treatment 1 h, AMD3100 5 μg/mL, then CXCL12) was “abolished”. For the same compound, in series [2], the side effects result is reported as “minimal side effects”. Further, in the series with Akt (pre-treatment 1 h (AMD3100 5 g/mL, LY294002 20 μM, PD98059 25 μM), 15 min post-CXCL12, Panc1 and MiaPaCa), the “effect on CXCL12-induced activation of Akt pathway” value is on record as “inhibited”.

In the case of `COc1cccc(-c2cc(=O)c3ccccc3o2)c1N` [PD98059, reference compound], the “effect on CXCL12-induced activation of ERK pathway” value with ERK is reported as “specifically inhibited”. Besides, the “effect on CXCL12-induced chemo-resistance (gemcitabine)” value with Panc1 and MiaPaCa cells [1] is listed as “significant negative impact”.

For the compound “CXCL12: Recombinant human CXCL12, a ligand for CXCR4”, in the series on Panc1 and MiaPaCa cells [3], the DNA fragmentation entry is on record as “reduced DNA fragmentation”. Further, in the series on ERK (setting [5]), the “activation of ERK (phospho-form)” value is reported as “significant activation”. In the series with FAK, the “activation of FAK (phospho-form)” value is “significant activation”. In addition, the activity of caspases result in the series on activated caspases is recorded as “enhanced activity of caspases”. Also, the resistance to gemcitabine-cytotoxicity entry in the series on Panc1 and MiaPaCa cells [1] (CXCL12 100 ng/mL, gemcitabine 0-10 μM, both cell lines, p<0.05) is “induced significant resistance”. For the same compound, the induction of growth in the series on Panc1 and MiaPaCa cells [1] (CXCL12 100 ng/ml, absence of serum growth factors, range over MiaPaCa and Panc1) is recorded as 29-33%. Moreover, the increase of growth with Panc1 and MiaPaCa cells [1] (CXCL12 100 ng/ml, presence of serum growth factors, range over MiaPaCa and Panc1) was 11-13%. In addition, the “level of phospho-BAD” value in the series with BAD is given as “increased level of phospho-BAD”. Further, in the series on SHH, the “expression of SHH” value is given as “induced expression of SHH”. Also, the “activation of Akt (phospho-form)” value in the series on Akt (setting [5]) was “significant activation”. Also, the “expression of Bcl-2, Bcl-xL, Notch-1 and survivin proteins” value in series [4] is recorded as “significantly induced”. The “induction of transcriptional activity of NF-κB responsive promoter” value in the series with NF-κB (MiaPaCa, CXCL12-treated) is 2.26 fold; with NF-κB (Panc1, CXCL12-treated), 2.98 fold.

Turning to `Nc1ccn([C@@H]2O[C@H](CO)[C@@H](O)C2(F)F)c(=O)n1` [gemcitabine], the values for the gemcitabine cytotoxicity with Panc1 cells and in the series on MiaPaCa cells were 52.3% and 50.7%, respectively.
